{
  "source": "paper PMC5537589",
  "about": "“A peptide-based viral inactivator inhibits Zika virus infection in pregnant mice and fetuses” (Nature Communications, 2017)",
  "key": {"YFV 17D": {"tested_on": "YFV 17D", "details": "read-out: IC50, inhibition of YFV 17D infection; BHK21 cells"}, "DENV-2": {"tested_on": "DENV-2", "details": "12 h"}, "ZIKV": {"tested_on": "ZIKV", "assay": "Plaque reduction assay in BHK21 cells", "type": "cell-based, Zika virus", "details": "n=3", "procedure": "Supplementary Figure 2: Plaque reduction assay to determine ZIKV infection in BHK21 cells. (a) Plaque reduction assay for Z2. ZIKV was incubated with Z2 or Z2-scr in diﬀerent concentrations for 1.5 h. Then the mixture was added to BHK21 cells seeded in 6-well plates. After 1.5 h, the viral inoculum was removed and 2.5 ml DMEM with 2% FBS and 1% low melting-point agarose overlaid the cells. Four to five days later, the cells were fixed with 4% PFA and stained with 1% crystal violet overnight. (b) Plaque reduction curves. Plaques were counted and percentage of plaque reduction was […]"}, "[1]": {"details": "rat, in vivo, iv, 10 mg/kg"}, "[2]": {"details": "100 μg Z2-Cy5 i.v.; male ICR mice"}, "[3]": {"details": "SD rats, n=3, serum"}, "[4]": {"assay": "Safety of Z2 for pregnant ICR mice and fetuses", "type": "in vivo"}, "Huh7 cells": {"tested_on": "Huh7 cells", "details": "concentration as high as 50 μM, 24 h, 37 °C, CCK8"}, "Vero cells": {"tested_on": "Vero cells", "details": "concentration as high as 50 μM, 24 h, 37 °C, CCK8"}, "BHK21 cells": {"tested_on": "BHK21 cells", "details": "concentration as high as 50 μM, 24 h, 37 °C, CCK8"}, "mouse red blood cells": {"tested_on": "mouse red blood cells", "details": "concentration as high as 100 μM; 2% mouse RBC, 1 h, 37 °C; A560"}, "[5]": {"assay": "In vivo fluorescence imaging of distribution in pregnant ICR mice and fetuses"}, "in vivo": {"assay": "in vivo", "details": "SD, rat, iv, 10 mg kg-1"}, "ZIKV virions": {"tested_on": "ZIKV virions", "assay": "Sucrose density gradient assay", "details": "100 μM peptide in 1% DMSO or 1% Triton X-100, 37 °C 2 h"}, "[6]": {"tested_on": "ZIKV-infected BHK21 cells", "type": "binding, Zika virus", "details": "peer review file", "procedure": "Supplementary Figure 4: Binding of Z2-Cy5 to ZIKV-infected BHK21 cells. (a) Immunofluorescence staining assay.\nScale bar = 100 μm. (b) Flow cytometry assay. After the incubation of ZIKV or mock infected BHK21 cells with Z2-Cy5, the cells were washed five times and processed by a BD Accuri C6 Flow Cytometer.\nBHK21 cells. As shown in Supplementary Figure 4, E protein (green, stained by anti-E mAb 4G2) and Z2-Cy5 (red) overlapped and colocated together (Supplementary Figure 4A). In the flow cytometry assay (Supplementary Figure 4B), Z2-Cy5 bound with 63.5% […]\nZIKV-infected BHK21 cells.\nSupplementary Figure 4: Binding of Z2-Cy5 to ZIKV-infected BHK21 cells. (A) […]\nScale bar = 100 μm. (B) Flow cytometry assay. After the incubation of ZIKV- or mock- […]\nThe result was added to the revised manuscript: “Similar results were […]\nobtained from ZIKV-infected BHK21cells (Supplementary Figure 4).”\nThe related methods were added in the revised manuscript:\n“To test the binding of Z2 to ZIKV- infected BHK21 cells, BHK21 cells seeded in cover slips were ZIKV or mock infected, fixed with 4 % PFA, perforated by 0.2% Triton X-100 and blocked with 3% BSA. The cells were then incubated with anti-E mAb 4G2.\nAfter 5 washes, the cells were incubated with Alexa Fluor 488-labeled donkey anti-mouse antibody and Z2-Cy5 at RT for 1 h. […]"}, "[7]": {"details": "10-120 mg kg−1 i.v., before and 4 h, 1, 3, 5 days after third injection, P>0.05"}},
  "note": "Where no end group is shown, it is not given here.",
  "data": [
    {"substance": "MAVLGDTAWDFGSVGGALNSLGKGIHQIFGAAF [Z2] [listing 1 of 2 here]", "values": [
      {"measurement": "IC50", "setting": "YFV 17D", "value": "~5", "unit": "µM"},
      {"measurement": "IC50", "setting": "DENV-2", "value": "~4", "unit": "µM"},
      {"measurement": "IC50", "setting": "ZIKV", "value": "2.61 ± 0.46", "unit": "µM"}
    ]},
    {"substance": "MAVLGDTAWDFGSVGGALNSLGKGIHQIFGAAF [Z2] [listing 2 of 2 here]", "values": [
      {"measurement": "AUC(0-inf)", "setting": "[1]", "value": 557, "unit": "ng·h/mL"},
      {"measurement": "AUC(0-t)", "setting": "[1]", "value": 548, "unit": "ng·h/mL"},
      {"measurement": "Tmax", "setting": "[1]", "value": 0.25, "unit": "h"},
      {"measurement": "distribution to genital organs (testis, seminal vesicle, epididymis)", "setting": "[2]", "value": "could distribute to the genital organs"},
      {"measurement": "Kel, elimination constant", "setting": "[3]; 10 mg kg-1 i.v. tail vein, LC-MS/MS, noncompartmental", "value": 0.250, "unit": "h⁻¹"},
      {"measurement": "Cmax", "setting": "[3]; 10 mg kg-1 i.v., concentration data dose-normalized", "value": 754.6, "unit": "ng/mL"},
      {"measurement": "average litter size of the offspring", "setting": "[4]; 10 mg kg−1 i.v. daily for 3 days, n=5, PBS 10.4±1.5", "value": "10.2±1.6"},
      {"measurement": "average litter size of the offspring", "setting": "[4]; 20 mg kg−1 i.v. daily for 3 days, n=6", "value": "10.5±2.0"},
      {"measurement": "average litter size of the offspring", "setting": "[4]; 40 mg kg−1 i.v. daily for 3 days, n=5", "value": "10.4±2.1"},
      {"measurement": "average litter size of the offspring", "setting": "[4]; 80 mg kg−1 i.v. daily for 3 days, n=5", "value": "10.6±1.1"},
      {"measurement": "average litter size of the offspring", "setting": "[4]; 120 mg kg−1 i.v. daily for 3 days, n=5", "value": "10.8±2.6"},
      {"measurement": "safe dose relative to dose protecting against ZIKV in vivo", "setting": "[4]; 120 mg kg−1 versus 10 mg kg−1", "value": 11, "unit": "fold"},
      {"measurement": "serum ALT versus PBS group", "setting": "[4]; [7]", "value": "no significant difference"},
      {"measurement": "serum creatinine versus PBS group", "setting": "[4]; [7]", "value": "no significant difference"},
      {"measurement": "histopathology (H&E) of livers, kidneys, brains, spleens of mothers and pups", "setting": "[4]; 10-120 mg kg−1 i.v., versus PBS", "value": "no pathological abnormality"},
      {"measurement": "body weight changes of mothers and pups", "setting": "[4]; i.v. 10, 20, 40, 80, 120 mg kg−1 daily for 3 days versus PBS", "value": "almost the same among the six groups"},
      {"measurement": "cytotoxic effect", "setting": "Huh7 cells", "value": "no cytotoxic effect"},
      {"measurement": "cytotoxic effect", "setting": "Vero cells", "value": "no cytotoxic effect"},
      {"measurement": "cytotoxic effect", "setting": "BHK21 cells", "value": "no cytotoxic effect"},
      {"measurement": "cytotoxic effect on red blood cells (hemoglobin release)", "setting": "mouse red blood cells", "value": "no cytotoxic effect"},
      {"measurement": "penetration of the placental barrier", "setting": "[5]; injected intravenously or intraperitoneally, pregnant ICR mice", "value": "can penetrate through the placental barrier"},
      {"measurement": "half-life", "setting": "in vivo", "value": 2.77, "unit": "h"}
    ]},
    {"substance": "Triton X-100", "values": [
      {"measurement": "fraction with peak of viral genomic RNA", "setting": "ZIKV virions; RT-qPCR", "value": 1, "unit": "fraction No."},
      {"measurement": "fraction with peak of E protein", "setting": "ZIKV virions; western blot", "value": 7, "unit": "fraction No."}
    ]},
    {"substance": "Z2-Cy5: Z2 labeled with Cy5 (MAVLGDTAWDFGSVGGALNSLGKGIHQIFGAAF; also: Cy5 label, site not given here)", "values": [
      {"measurement": "ZIKV-infected BHK21 cells bound by Z2-Cy5 (flow cytometry)", "setting": "[6]", "value": 63.5, "unit": "%"},
      {"measurement": "average radiant efficiency in uteruses versus PBS", "setting": "[5]; 100 μg i.v., 1 h, P=0.0148", "value": "significantly higher"},
      {"measurement": "average radiant efficiency in liver versus PBS", "setting": "[5]; 100 μg i.v., 1 h, P=0.0275", "value": "significantly higher"},
      {"measurement": "average radiant efficiency in bladder versus PBS", "setting": "[5]; 100 μg i.v., 1 h, P=0.0426", "value": "significantly higher"},
      {"measurement": "average radiant efficiency in fetuses versus PBS", "setting": "[5]; 100 μg i.v., 1 h, n=9 fetuses, P<0.0001", "value": "significantly higher"}
    ]}
  ]
}
